In US7592308B2, “F3W variants of the lantibiotic mersacidin and its use” (priority 2004, dated 2009):
Values after ≈ are worked out from the molar mass of the structure shown. Where two headings read alike, the source gives them in different places. Square brackets hold non-standard residues; d marks the D form. Ends that are not written are not given here. Dha = C=C(N)C(=O)O

Key:
E. faecium BM4147 = test: MIC test, further organisms; type: cell-based, Enterococcus faecium; details: Table 10; duplicate
Procedure: (§1) MIC tests were performed with some of the variants of Example 2 on a range of other organisms. The results are shown in Tables 9 and 10 (figures in μg/ml): […]

S. aureus COL = type: cell-based, Staphylococcus aureus
Procedure: as §1

M. luteus 4698 = type: cell-based, Micrococcus luteus
Procedure: (§2) A selection of the variants produced in Example 1 above were tested further for activity against a range of bacteria. Minimum inhibitory concentrations (MICs) for all organisms with the exception of Streptococcus pneumoniae were determined by two-fold serial antibiotic dilutions in Mueller-Hinton broth (MHB) supplemented with 50 μg/ml calcium as calcium chloride dihydrate. Minimum inhibitory concentrations (MICs) for S. pneumoniae were determined by two-fold serial antibiotic dilutions in Brain Heart Infusion (BHI) broth supplemented with 50 μg/ml calcium as calcium chloride dihydrate. Antimicrobial agent stock solutions were prepared and stored according to NCCLS standard M7-A6.
(§3) Actively growing broth cultures were diluted to contain […] by adjusting to an absorbance of 0.2-0.3 at 600 nm, equivalent to the McFarland 0.5 standard. They were then diluted a further 1:100 in broth. The assays were performed in duplicate in sterile 96-well microtitre plates in a total volume of 200 μl (160 μl broth, 20 μl antibiotic, 20 μl inoculum) in a concentration range from 64 μg/ml to 0.06 μg/ml. The 12th well of the microtitre plate contained no antimicrobial agent. Vancomycin was used as a reference antibiotic for quality control. Plates were incubated aerobically, shaking, for 18-20 hours at 37° C. with the MIC defined as the lowest concentration of drug that produced no visible growth.

S. aureus Mu50 = test: MIC test, further organisms; type: cell-based, Staphylococcus aureus; details: Table 10; duplicate
Procedure: as §1

S. aureus LT 1012-13 = test: MIC test, further organisms; type: cell-based, Staphylococcus aureus; details: Table 10; duplicate
Procedure: as §1

E. faecalis 29212 = test: MIC, two-fold serial dilution in broth; type: cell-based, Enterococcus faecalis; details: Table 8A; MHB + 50 μg/ml calcium; duplicate
Procedure: as §2, §3

[1] = system: Micrococcus luteus ATCC4698; test: Bioassay of culture supernatant against M. luteus; type: cell-based; details: aqueous phase of chloroform-extracted culture supernatant
Procedure: The cultures were assayed for production of mersacidin by HPLC and bioassay against Micrococcus luteus ATCC4698. Samples of production cultures (1 ml) were centrifuged at 14000 rpm for 10 minutes. Supernatants were decanted and used undiluted for HPLC and bioassay.
For bioassays, M.luteus was inoculated from frozen stock into 10 ml half-strength Muller-Hinton broth in a 50 ml conical flask, and incubated at 30C with shaking at 250 rpm for approximately 7 hours, 0.3 ml of this culture was used to inoculate 300 ml of Muller-Hinton agar which was poured into a bioassay plate. Wells (6 mm diameter) were made with a cork-borer. Samples of 50 μl of supernatants were added to these wells. The concentration of mersacidin in the samples was calculated by comparing the diameter of inhibition zones of samples against a range of concentrations of a pure mersacidin standard.
Chloramphenicol resistant colonies were selected and grown in 3 ml Tryptic Soy Broth at 30C for 24 hours, 250 rpm and 0.3 ml of these cultures were used to inoculate 7 ml of 2×BPM+300 mM glucose+chloramphenicol (20 mg/l). After five days of incubation at 30C and 250 rpm, a 1 ml sample was collected and centrifuged at 13000 rpm for 10 min, the supernatant was removed, extracted with 1 volume of chloroform and the aqueous phase used for bioassay and HPLC-MS analysis (see accompanying disclosure for method). […] These masses are consistent with production of the expected mature lantibiotic products.
The ligation mixture was used to transform E. coli DH10B (Invitrogen). Ampicillin resistant colonies were selected, grown in LB+ampicillin (100 mg/l) and plasmids were isolated and characterised by sequence analysis. Plasmid encoding the expected mutant (pNB2024) was used to transform E. coli ET12567 and the plasmid obtained from this strains was used to transform Bacillus sp. HIL Y-85,54728 E17A. Chloramphenicol resistant colonies were selected and grown in 3 ml Tryptic Soy Broth at 30C for 24 hours, 250 rpm and 0.3 ml of these cultures were used to inoculate 7 ml of 2×BPM+300 mM glucose+chloramphenicol (20 mg/l). […]

S. pneumoniae R6 = type: cell-based, Streptococcus pneumoniae; details: Table 8B; BHI broth + 50 μg/ml calcium; duplicate
Procedure: as §2, §3

S. aureus SH1000 = type: cell-based, Staphylococcus aureus; details: Table 8A; MHB + 50 μg/ml calcium; duplicate
Procedure: as §2, §3

E. faecium 19579 = test: MIC, two-fold serial dilution in broth; type: cell-based, Enterococcus faecium; details: Table 8A; MHB + 50 μg/ml calcium; duplicate
Procedure: as §2, §3

S. aureus CS = type: cell-based, Staphylococcus aureus
Procedure: as §1

S. aureus 1012-13 MRSA = type: cell-based, Staphylococcus aureus
Procedure: as §1

S. aureus COL MRSA = type: cell-based, Staphylococcus aureus
Procedure: as §1

S. aureus SG511 = type: cell-based, Staphylococcus aureus
Procedure: as §1

E. faecium 4147-1 = type: cell-based, Enterococcus faecium
Procedure: as §1

E. faecium 4147 VRE = type: cell-based, Enterococcus faecium
Procedure: as §1

S. pyogenes 13608 = type: cell-based, Streptococcus pyogenes
Procedure: as §1

S. pyogenes 16205 = type: cell-based, Streptococcus pyogenes
Procedure: as §1

E. faecium 7131121 = test: MIC, two-fold serial dilution in broth; type: cell-based, Enterococcus faecium; details: Table 8A; MHB + 50 μg/ml calcium; duplicate
Procedure: as §2, §3

[2] = Table 8B, MHB + 50 μg/ml calcium, duplicate

C=C1NC(=O)C2NC(=O)[C@H](CC(C)C)NC(=O)C(NC(=O)[C@@H]3CSC(C)C(NC(=O)[C@H](Cc4ccccc4)NC(=O)C4NC(=O)[C@@H](N)CSC4C)C(=O)N[C@@H](CC(C)C)C(=O)N4CCC[C@H]4C(=O)NCC(=O)NCC(=O)N[C@@H](C)C(=O)NCC(=O)N[C@@H](C(C)C)C(=O)N3)C(C)SC[C@H](NC(=O)[C@H](CCC(=O)O)NC1=O)C(=O)N[C@@H]([C@@H](C)CC)C(=O)NC=CSC2C (stereo partly shown) [G9A]
MIC E. faecium BM4147 (E. faecium BM4147): >64, >64 μg/ml | MIC S. aureus COL (S. aureus COL; COL): 64, >64 μg/ml | MIC M. luteus 4698 (M. luteus 4698; [2]): <4, <4 μg/ml | MIC S. aureus Mu50 (S. aureus Mu50): >64, >64 μg/ml | MIC S. aureus LT 1012-13 (S. aureus LT 1012-13): >64, >64 μg/ml | MIC E. faecalis 29212 (E. faecalis 29212): >64, >64 μg/ml

G8V: mersacidin variant, inactive in bioassay (CTFTLPGVGGVCTLT[Dha]ECIC; thioether (positions not given here); not fully specified; UniProt P43683 49-68, looked up, variant G8V)
antibiotic activity in bioassay against M. luteus [1]: inactive

G9H: mersacidin variant (CTFTLPGGHGVCTLT[Dha]ECIC; thioether (positions not given here); not fully specified; UniProt P43683 49-68, looked up, variant G9H)
MIC E. faecium BM4147 (E. faecium BM4147): >64, >64 μg/ml | MIC S. aureus COL (S. aureus COL; Table 10, duplicate): >64, >64 μg/ml | MIC M. luteus 4698 (M. luteus 4698; [2]): <4, <4 μg/ml | MIC S. aureus Mu50 (S. aureus Mu50): >64, >64 μg/ml | MIC S. aureus LT 1012-13 (S. aureus LT 1012-13): >64, >64 μg/ml | MIC E. faecalis 29212 (E. faecalis 29212): >64, >64 μg/ml

P6N: mersacidin variant (CTFTLNGGGGVCTLT[Dha]ECIC; thioether (positions not given here); not fully specified; UniProt P43683 49-68, looked up, variant P6N)
MIC E. faecium BM4147 (E. faecium BM4147): >32, >32 μg/ml | MIC S. aureus COL (S. aureus COL; Table 10, duplicate): >32, >32 μg/ml | MIC S. aureus Mu50 (S. aureus Mu50): >32, >32 μg/ml | MIC S. aureus LT 1012-13 (S. aureus LT 1012-13): >32, >32 μg/ml

G8N: mersacidin variant (CTFTLPGNGGVCTLT[Dha]ECIC; thioether (positions not given here); not fully specified; UniProt P43683 49-68, looked up, variant G8N)
MIC E. faecium BM4147 (E. faecium BM4147): >64, >64 μg/ml | MIC S. pneumoniae R6 (S. pneumoniae R6): >64, >64 μg/ml | MIC S. aureus COL (S. aureus COL; Table 10, duplicate): >64, >64 μg/ml | MIC S. aureus Mu50 (S. aureus Mu50): >64, >64 μg/ml | MIC S. aureus LT 1012-13 (S. aureus LT 1012-13): >64, >64 μg/ml | MIC S. aureus SH1000 (S. aureus SH1000): >64, >64 μg/ml | MIC E. faecium 19579 (E. faecium 19579): >64, >64 μg/ml | MIC E. faecalis 29212 (E. faecalis 29212): >64, >64 μg/ml

C=C1NC(=O)C2NC(=O)[C@H](CC(C)C)NC(=O)C(NC(=O)[C@@H]3CSC(C)C(NC(=O)[C@H](Cc4ccccc4)NC(=O)C4NC(=O)[C@@H](N)CSC4C)C(=O)N[C@@H](CC(C)C)C(=O)N4CCC[C@H]4C(=O)NCC(=O)N[C@@H](C)C(=O)NCC(=O)NCC(=O)N[C@@H](C(C)C)C(=O)N3)C(C)SC[C@H](NC(=O)[C@H](CCC(=O)O)NC1=O)C(=O)N[C@@H]([C@@H](C)CC)C(=O)NC=CSC2C (stereo partly shown) [G8A, mersacidin G8A]
MIC S. aureus CS (S. aureus CS): 8 µg/mL (≈ 4.35 µM) | MIC S. aureus 1012-13 MRSA (S. aureus 1012-13 MRSA): 16 µg/mL (≈ 8.69 µM) | MIC S. aureus COL MRSA (S. aureus COL MRSA): 32 µg/mL (≈ 17.4 µM) | MIC S. aureus SG511 (S. aureus SG511): 8 µg/mL (≈ 4.35 µM) | antibiotic activity in bioassay against M. luteus [1]: has antibiotic activity | MIC E. faecium 4147-1 (E. faecium 4147-1; 4147-1): 128 µg/mL (≈ 69.6 µM) | MIC E. faecium 4147 VRE (E. faecium 4147 VRE; Table 9, 16 h): 64-16 h, μg/ml | MIC E. faecium 4147 VRE (E. faecium 4147 VRE; Table 9, 24 h): 128-24 h μg/ml | MIC M. luteus 4698 (M. luteus 4698; 4698): 4 µg/mL (≈ 2.17 µM) | MIC S. pyogenes 13608 (S. pyogenes 13608): 1 µg/mL (≈ 0.543 µM) | MIC S. pyogenes 16205 (S. pyogenes 16205): 1 µg/mL (≈ 0.543 µM)

C=C1NC(=O)C2NC(=O)[C@H](CC(C)C)NC(=O)C(NC(=O)[C@@H]3CSC(C)C(NC(=O)[C@H](Cc4ccccc4)NC(=O)C4NC(=O)[C@@H](N)CSC4C)C(=O)N[C@@H](CC(C)C)C(=O)N[C@@H](Cc4c[nH]cn4)C(=O)NCC(=O)NCC(=O)NCC(=O)NCC(=O)N[C@@H](C(C)C)C(=O)N3)C(C)SC[C@H](NC(=O)[C@H](CCC(=O)O)NC1=O)C(=O)N[C@@H]([C@@H](C)CC)C(=O)NC=CSC2C (stereo partly shown) [P6H]
MIC E. faecium BM4147 (E. faecium BM4147): >64, >64 μg/ml | MIC S. pneumoniae R6 (S. pneumoniae R6): >64, 64 μg/ml | MIC S. aureus COL (S. aureus COL; Table 10, duplicate): >64, >64 μg/ml | MIC S. aureus Mu50 (S. aureus Mu50): >64, >64 μg/ml | MIC S. aureus LT 1012-13 (S. aureus LT 1012-13): >64, >64 μg/ml | MIC E. faecium 7131121 (E. faecium 7131121): >64, >64 μg/ml | MIC E. faecium 19579 (E. faecium 19579): >64, >64 μg/ml | MIC E. faecalis 29212 (E. faecalis 29212): >64, >64 μg/ml

C=C1NC(=O)C2NC(=O)[C@H](CC(C)C)NC(=O)C(NC(=O)[C@@H]3CSC(C)C(NC(=O)[C@H](Cc4c[nH]c5ccccc45)NC(=O)C4NC(=O)[C@@H](N)CSC4C)C(=O)N[C@@H](CC(C)C)C(=O)N4CCC[C@H]4C(=O)NCC(=O)NCC(=O)NCC(=O)NCC(=O)N[C@@H](C(C)C)C(=O)N3)C(C)SC[C@H](NC(=O)[C@H](CCC(=O)O)NC1=O)C(=O)N[C@@H]([C@@H](C)CC)C(=O)NC=CSC2C (stereo partly shown) [F3W, mersacidin F3W]
MIC S. aureus CS (S. aureus CS): 4 µg/mL (≈ 2.14 µM) | MIC S. aureus 1012-13 MRSA (S. aureus 1012-13 MRSA): 4 µg/mL (≈ 2.14 µM) | MIC S. aureus COL MRSA (S. aureus COL MRSA): 16 µg/mL (≈ 8.58 µM) | MIC S. aureus SG511 (S. aureus SG511): 2 µg/mL (≈ 1.07 µM) | antibiotic activity in bioassay against M. luteus [1]: antibiotic activity comparable to mersacidin | MIC E. faecium 4147-1 (E. faecium 4147-1; Table 9, 16 h): 32-16 h, μg/ml | MIC E. faecium 4147-1 (E. faecium 4147-1; Table 9, 23 h): 64-23 h μg/ml | MIC E. faecium 4147 VRE (E. faecium 4147 VRE; 4147 VRE): 32 µg/mL (≈ 17.2 µM) | MIC M. luteus 4698 (M. luteus 4698; 4698): 0.5 µg/mL (≈ 0.268 µM) | MIC S. pyogenes 13608 (S. pyogenes 13608): 0.125 µg/mL (≈ 0.067 µM) | MIC S. pyogenes 16205 (S. pyogenes 16205): 0.125 µg/mL (≈ 0.067 µM)
